Assays:
HOS: HR-1 mice [1] = experiment: Transepidermal water loss (TEWL) in dry skin mouse models, Tewameter TM210; format: in vivo; conditions: for TEWL value: specialty feed containing 0.0089% by weight PQQ disodium salt, right buttock, group average
Description: (§1) For testing, HOS: HR-1 mice (female, 4 weeks old, purchased from Hoshino Laboratory Animmals, Inc.) were used. Mice were raised under conditions of a room temperature of 22±3° C. and a humidity of 50±25% while being fed with feed and water ad libitum.
(§2) Each test group consisted of 8 mice. The mice of the 1st group were fed with a commercially available powder feed product “CE-2.” The mice of the 2nd group were fed with a specialty feed product (produced by Nosan Corporation). The mice of the 3rd group were fed with a specialty feed product containing 0.0089% by weight of pyrroloquinoline quinone disodium salt (hereinafter referred to as PQQ disodium salt, produced by Mitsubishi Gas Chemical Company, Inc.). In addition, it has been known that HOS: HR-1 mice develop dry skin after being fed with the above specialty feed product (The Journal of international medical research pharmacology, 32, 392-399 (2004)).
Upon the initiation of feeding with each feed product and 2, 4, and 6 weeks later, the transepidermal water loss (TEWL) of the right buttock of each mouse was determined with the use of a Tewameter TM210 (Courage+Khazaka electronic GmbH, Germany) and the average value for each group was calculated.

HOS: HR-1 mice [2] = experiment: Skin moisture content (conductance) in dry skin mouse models, SKICON-200; format: in vivo; conditions: for Conductance (skin moisture content): specialty feed containing 0.0089% by weight PQQ disodium salt, group average
Description: as §1, §2
In addition, the skin moisture content (conductance) was determined with SKICON-200 (produced by IBS) and the average value for each group was calculated. Table 2 lists results of determination of the skin moisture content from week 0 to week 6 after the initiation of the test.

HOS: HR-1 mice [3] = experiment: Epidermis thickness, paraffin sections of mouse dorsal skin; format: in vivo
Description: as §1, §2
Paraffin sections of mouse dorsal skin fixed with neutral buffer containing 10 vol % formalin were prepared for the determination of epidermis thickness. Table 3 lists results of the determination of epidermis thickness 6 weeks after the initiation of the test.

mast cells in dermis = experiment: Number of mast cells in dermis, May-Grunwald-Giemsa staining; format: in vivo, mice
Description: as §1, §2
The number of mast cells in dermis was determined with the use of May-Grunwald-Giemsa staining specimens. The counting area was the dermis located above the cutaneous muscle. The number of cells in the dermis (per 1 mm of the baseline) was obtained by dividing the determined cell number by the length of a straight line extending between both ends of the cutaneous muscle (baseline). […]

[4] = test system: CD3-positive T lymphocytes in the epidermis; experiment: Number of CD3-positive T lymphocytes in epidermis, anti-CD3 immunostaining; format: in vivo, mice
Description: as §1, §2
In addition, counting of the number of CD3-positive T lymphocytes in the epidermis was carried out with the use of anti-CD3 immunostained specimens. The counting area was the dermis located above the cutaneous muscle. The number of cells in the epidermis (per mm of the baseline) was obtained by dividing the determined cell number by the length of a straight line extending between both ends of the cutaneous muscle (baseline). […]

[5] = 3rd group versus 2nd group (specialty feed without PQQ disodium salt)
[6] = feeding period 0 weeks (initiation)
[7] = 3rd group versus 2nd group, 6 weeks
[8] = 6 weeks after initiation, specialty feed containing 0.0089% by weight PQQ disodium salt, *p < 0.05 for the 2nd group

O=C(O)c1cc(C(=O)O)c2c(n1)C(=O)C(=O)c1cc(C(=O)O)[nH]c1-2.[Na].[Na] [PQQ disodium salt, pyrroloquinoline quinone disodium salt]
Transepidermal water loss value (TEWL value), result in words (HOS: HR-1 mice [1]; [5]): suppressed to a level lower than that in the 2nd group
TEWL value (HOS: HR-1 mice [1]; [6]): 4.94 g/m²/h
TEWL value (HOS: HR-1 mice [1]; feeding period 2 weeks): 17.9 g/m²/h
TEWL value (HOS: HR-1 mice [1]; feeding period 4 weeks): 27 g/m²/h
TEWL value (HOS: HR-1 mice [1]; feeding period 6 weeks): 29.9 g/m²/h
Skin moisture content (conductance), result in words (HOS: HR-1 mice [2]; [5]): increased to a greater extent than that in the 2nd group
Conductance (skin moisture content) (HOS: HR-1 mice [2]; [6]): 414.55 μS
Conductance (skin moisture content) (HOS: HR-1 mice [2]; feeding period 2 weeks): 67.83 μS
Conductance (skin moisture content) (HOS: HR-1 mice [2]; feeding period 4 weeks): 41.95 μS
Conductance (skin moisture content) (HOS: HR-1 mice [2]; feeding period 6 weeks): 39.03 μS
Epidermis thickening, result in words (HOS: HR-1 mice [3]; [7]): epidermis thickening was suppressed
Epidermis thickness (HOS: HR-1 mice [3]; 6 weeks after initiation, dorsal skin, specialty feed containing 0.0089% by weight PQQ disodium salt): 64.03 μm
Number of mast cells in the dermis, result in words (mast cells in dermis; [7]): the number of mast cells in the dermis was suppressed
Number of mast cells in dermis per mm basal line (mast cells in dermis; [8]): 54.62* cells/mm basal line
Number of CD3-positive cells in the epidermis, result in words [4, 7]: the number of CD3-positive cells in the epidermis was suppressed
Number of CD3-positive cells in epidermis per mm basal line [4, 8]: 18.95* cells/mm basal line
